Key:
[1] = system: Rattus norvegicus; experiment: (§1) Cmax in Sprague-Dawley rat at 3 mg/kg, po; assay type: ADME, organism-based; parameters: dose 3 mg/kg, route oral; details: in vivo
[2] = target: Voltage-gated inwardly rectifying potassium channel KCNH2 (Homo sapiens, UniProt Q12809); experiment: Inhibition of human ERG by Q-patch assay
[3] = target: Cytochrome P450 3A4 (Homo sapiens, UniProt P08684); experiment: Inhibition of CYP3A4 (unknown origin); assay type: ADME
[4] = target: Cytochrome P450 2C9 (Homo sapiens, UniProt P11712); experiment: Inhibition of CYP2C9 (unknown origin); assay type: ADME
Chain of Cytochrome P450 2C9 (P11712 whole entry): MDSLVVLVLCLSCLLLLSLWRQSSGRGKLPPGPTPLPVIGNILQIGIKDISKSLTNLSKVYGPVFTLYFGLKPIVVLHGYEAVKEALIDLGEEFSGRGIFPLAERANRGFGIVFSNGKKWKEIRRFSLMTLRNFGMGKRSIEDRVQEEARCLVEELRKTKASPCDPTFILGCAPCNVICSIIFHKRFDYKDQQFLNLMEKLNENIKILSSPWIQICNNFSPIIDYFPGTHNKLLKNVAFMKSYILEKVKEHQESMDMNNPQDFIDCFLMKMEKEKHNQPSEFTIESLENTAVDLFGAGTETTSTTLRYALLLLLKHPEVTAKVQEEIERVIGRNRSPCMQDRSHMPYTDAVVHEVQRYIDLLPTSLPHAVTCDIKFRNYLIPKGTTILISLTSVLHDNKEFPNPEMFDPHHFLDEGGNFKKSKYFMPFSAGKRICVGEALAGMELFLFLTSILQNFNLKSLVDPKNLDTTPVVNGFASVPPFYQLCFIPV

[5] = Cytotoxicity against human HuhET cells by [3H]thymidine incorporation assay; assay type: cell-based
[6] = Metabolic stability in rat liver microsomes assessed as remaining parent compound level at 5 uM after 30 mins in presence of NADPH and UDPGA; assay type: ADME; details: read-out: Stability
[7] = Metabolic stability in human liver microsomes assessed as remaining parent compound level at 5 uM after 30 mins in presence of NADPH and UDPGA; assay type: ADME; details: read-out: Stability
[8] = target: Cytochrome P450 2D6 (Homo sapiens, UniProt P10635); experiment: Inhibition of CYP2D6 (unknown origin); assay type: ADME
Chain of Cytochrome P450 2D6 (P10635 whole entry): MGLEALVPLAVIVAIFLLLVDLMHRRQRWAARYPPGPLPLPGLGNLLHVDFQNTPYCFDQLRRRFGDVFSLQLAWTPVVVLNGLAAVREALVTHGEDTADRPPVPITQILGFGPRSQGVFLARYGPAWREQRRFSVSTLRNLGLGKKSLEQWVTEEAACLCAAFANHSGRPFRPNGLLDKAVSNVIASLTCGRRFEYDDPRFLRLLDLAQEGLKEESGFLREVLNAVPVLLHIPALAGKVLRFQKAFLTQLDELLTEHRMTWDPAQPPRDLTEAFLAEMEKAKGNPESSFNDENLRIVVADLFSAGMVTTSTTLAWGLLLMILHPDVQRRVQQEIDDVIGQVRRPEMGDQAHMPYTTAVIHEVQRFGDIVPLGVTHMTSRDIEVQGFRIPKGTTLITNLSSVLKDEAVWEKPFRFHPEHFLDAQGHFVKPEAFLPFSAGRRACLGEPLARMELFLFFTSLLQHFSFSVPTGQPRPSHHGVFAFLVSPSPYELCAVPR

[9] = system: Hepatitis C virus; experiment: Antiviral activity against HCV genotype 1a infected in W11.8 cells assessed as decrease in NS5A expression in replicon cell after 4 days by luminescence based ELISA; assay type: functional, Hepacivirus hominis; details: subtype 1a, W11.8, 96 h
[10] = system: Hepatitis C virus; experiment: Antiviral activity against HCV genotype 1b infected in human Huh-5.2 cells assessed as decrease in HCV replicon RNA replication after 4 days by luciferase assay; assay type: functional, cell-based, Hepacivirus hominis; details: Huh-5-2, 96 h
[11] = as §1; assay type: ADME, organism-based; parameters: dose 3 mg/kg, route oral; details: Sprague-Dawley, in vivo
[12] = Volume of distribution at steady state in Sprague-Dawley rat at 3 mg/kg, iv; assay type: ADME, organism-based; parameters: dose 3 mg/kg, route intravenous; details: in vivo, read-out: Vdss
[13] = Oral bioavailability in Sprague-Dawley rat at 3 mg/kg; assay type: ADME, organism-based; details: in vivo
[14] = Half life in Sprague-Dawley rat at 3 mg/kg, iv; assay type: ADME, organism-based; parameters: dose 3 mg/kg, route intravenous; details: in vivo
[15] = Clearance in Sprague-Dawley rat at 3 mg/kg, iv; assay type: ADME, organism-based; parameters: dose 3 mg/kg, route intravenous; details: in vivo
[16] = AUC (0 to 8 hrs) in Sprague-Dawley rat at 3 mg/kg, po; assay type: ADME, organism-based; parameters: time < 8 hr, dose 3 mg/kg, route oral; details: plasma
[17] = Half life in Sprague-Dawley rat at 3 mg/kg, po; assay type: ADME, organism-based; parameters: dose 3 mg/kg, route oral; details: in vivo

Chain of Cytochrome P450 3A4 (P08684 whole entry): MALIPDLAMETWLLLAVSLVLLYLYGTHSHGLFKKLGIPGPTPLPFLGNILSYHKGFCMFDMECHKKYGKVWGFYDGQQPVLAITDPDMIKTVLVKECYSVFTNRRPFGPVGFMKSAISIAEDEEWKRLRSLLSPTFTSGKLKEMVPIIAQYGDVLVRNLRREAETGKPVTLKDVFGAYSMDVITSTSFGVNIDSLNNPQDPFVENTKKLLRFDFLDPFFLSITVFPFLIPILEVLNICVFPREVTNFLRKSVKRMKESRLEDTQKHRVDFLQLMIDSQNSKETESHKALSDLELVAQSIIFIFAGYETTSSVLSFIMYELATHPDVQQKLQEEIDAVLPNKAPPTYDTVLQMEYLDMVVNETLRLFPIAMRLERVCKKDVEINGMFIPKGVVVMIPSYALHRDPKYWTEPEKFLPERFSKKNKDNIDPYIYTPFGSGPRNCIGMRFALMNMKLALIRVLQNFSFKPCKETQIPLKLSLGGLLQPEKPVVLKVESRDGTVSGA
Chain of Voltage-gated inwardly rectifying potassium channel KCNH2 (Q12809 whole entry): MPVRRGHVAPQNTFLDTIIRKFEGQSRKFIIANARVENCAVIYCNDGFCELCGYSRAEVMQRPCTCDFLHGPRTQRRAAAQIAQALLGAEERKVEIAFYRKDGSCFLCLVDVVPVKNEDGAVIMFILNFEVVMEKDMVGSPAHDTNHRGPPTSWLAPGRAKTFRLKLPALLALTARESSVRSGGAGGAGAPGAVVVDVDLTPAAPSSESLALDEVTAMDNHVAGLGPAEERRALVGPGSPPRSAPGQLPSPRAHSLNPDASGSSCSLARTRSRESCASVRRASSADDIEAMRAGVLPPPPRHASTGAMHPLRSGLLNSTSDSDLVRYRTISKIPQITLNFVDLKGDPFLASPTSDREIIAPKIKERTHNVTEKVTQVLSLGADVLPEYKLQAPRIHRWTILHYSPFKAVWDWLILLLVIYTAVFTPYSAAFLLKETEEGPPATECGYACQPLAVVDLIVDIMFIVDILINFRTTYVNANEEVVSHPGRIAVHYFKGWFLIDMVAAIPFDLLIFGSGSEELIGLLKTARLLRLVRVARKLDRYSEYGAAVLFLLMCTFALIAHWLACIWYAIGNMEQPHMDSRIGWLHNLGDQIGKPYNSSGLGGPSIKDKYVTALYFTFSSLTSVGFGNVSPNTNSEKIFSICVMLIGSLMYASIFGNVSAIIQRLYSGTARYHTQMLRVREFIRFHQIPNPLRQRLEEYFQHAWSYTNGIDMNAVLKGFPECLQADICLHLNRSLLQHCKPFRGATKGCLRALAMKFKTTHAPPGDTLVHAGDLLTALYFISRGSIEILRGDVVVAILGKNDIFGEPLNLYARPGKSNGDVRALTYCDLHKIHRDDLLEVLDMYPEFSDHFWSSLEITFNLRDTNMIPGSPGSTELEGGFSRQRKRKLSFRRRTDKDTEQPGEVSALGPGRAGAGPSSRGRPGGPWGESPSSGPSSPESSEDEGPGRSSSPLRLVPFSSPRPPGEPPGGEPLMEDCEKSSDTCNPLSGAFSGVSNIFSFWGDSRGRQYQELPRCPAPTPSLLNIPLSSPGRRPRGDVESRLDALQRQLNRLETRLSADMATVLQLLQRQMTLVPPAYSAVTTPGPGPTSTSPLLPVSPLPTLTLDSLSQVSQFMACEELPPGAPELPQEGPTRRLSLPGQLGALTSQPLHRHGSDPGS

| SMILES | EC50 [9] [nM] | EC50 [10] [nM] | CC50 [5] [µM] | also measured |
| --- | --- | --- | --- | --- |
| COC(=O)N[C@H](C(=O)N1C[C@@H](C)C[C@H]1c1ncc(-c2ccc(-c3ccc(-c4cc5[nH]c([C@@H]6C[C@H](C)CN6C(=O)[C@@H](NC(=O)OC)C(C)C)nc5s4)cc3)cc2)[nH]1)C(C)C |  |  | > 20 | Cmax [1]: 0.03 µg/mL; IC50 [2]: > 40 µM; IC50 [3]: > 30 µM; IC50 [4]: > 30 µM; remaining at 0.5 h, 5 µM [6]: 100%; remaining at 0.5 h, 5 µM [7]: 90%; IC50 [8]: > 30 µM |
| COC(=O)N[C@H](C(=O)N1C[C@@H](C)C[C@H]1c1ncc(-c2ccc(-c3cc4sc(-c5cc6[nH]c([C@@H]7C[C@H](C)CN7C(=O)[C@@H](NC(=O)OC)C(C)C)nc6s5)cc4s3)cc2)[nH]1)C(C)C | 0.053 | 0.012 | > 20 |  |
| COC(=O)N[C@H](C(=O)N1C[C@@H](C)C[C@H]1c1ncc(-c2ccc(-c3ccc(-c4cc5[nH]c([C@@H]6C[C@H](C)CN6C(=O)[C@@H](NC(=O)OC)C(C)C)nc5s4)cc3C)cc2)[nH]1)C(C)C | 0.037 | 0.002 | 19.2 |  |
| COC(=O)N[C@H](C(=O)N1C[C@@H](C)C[C@H]1c1nc2sc(-c3ccc(-c4ccc5oc([C@@H]6C[C@H](C)CN6C(=O)[C@@H](NC(=O)OC)C(C)C)nc5c4)cc3)cc2[nH]1)C(C)C | 18 | 0.115 | > 20 |  |
| COC(=O)N[C@H](C(=O)N1C[C@@H](C)C[C@H]1c1nc2cc(-c3ccc(-c4cc5[nH]c([C@@H]6C[C@H](C)CN6C(=O)[C@@H](NC(=O)OC)C(C)C)nc5s4)cc3)ccc2[nH]1)C(C)C | 0.6 |  | > 20 |  |
| COC(=O)N[C@H](C(=O)N1C[C@@H](C)C[C@H]1c1nc2cc(C#Cc3cc4[nH]c([C@@H]5C[C@H](C)CN5C(=O)[C@@H](NC(=O)OC)C(C)C)nc4s3)ccc2[nH]1)C(C)C | 39 | 0.011 |  |  |
| COC(=O)N[C@H](C(=O)N1C[C@@H](C)C[C@H]1c1nc2sc(-c3ccc(-c4ccc5c(c4)nc([C@@H]4C[C@H](C)CN4C(=O)[C@@H](NC(=O)OC)C(C)C)n5C)cc3)cc2[nH]1)C(C)C | 13 | 0.019 | > 20 |  |
| COC(=O)N[C@H](C(=O)N1C[C@@H](C)C[C@H]1c1cc2cc(-c3ccc(-c4cc5[nH]c([C@@H]6C[C@H](C)CN6C(=O)[C@@H](NC(=O)OC)C(C)C)nc5s4)cc3)ccc2[nH]1)C(C)C | 100 | 0.045 | > 20 |  |
| COC(=O)N[C@H](C(=O)N1C[C@@H](C)C[C@H]1c1cn2ccc(-c3ccc(-c4cc5[nH]c([C@@H]6C[C@H](C)CN6C(=O)[C@@H](NC(=O)OC)C(C)C)nc5s4)cc3)cc2n1)C(C)C | 0.3 | 0.041 | 15.3 |  |
| COC(=O)N[C@H](C(=O)N1CCC[C@H]1c1nc2cc(C#Cc3cc4[nH]c([C@@H]5CCCN5C(=O)[C@@H](NC(=O)OC)C(C)C)nc4s3)ccc2[nH]1)C(C)C | 828 | 0.215 |  |  |

Further lines, with some results ahead:

| EC50 [9] [nM] | EC50 [10] [nM] | SMILES | CC50 [5] [µM] | also measured |
| --- | --- | --- | --- | --- |
| 0.037 | 0.004 | COC(=O)N[C@H](C(=O)N1C[C@@H](C)C[C@H]1c1ncc(-c2ccc(-c3ccc(-c4cc5[nH]c([C@@H]6C[C@H](C)CN6C(=O)[C@@H](NC(=O)OC)C(C)C)nc5s4)c(C)c3)cc2)[nH]1)C(C)C | > 20 |  |
| 0.023 | 0.002 | COC(=O)N[C@H](C(=O)N1C[C@@H](C)C[C@H]1c1ncc(-c2ccc(-c3ccc(-c4cc5[nH]c([C@@H]6C[C@H](C)CN6C(=O)[C@@H](NC(=O)OC)C(C)C)nc5s4)c(F)c3)cc2)[nH]1)C(C)C | > 20 |  |
| 0.017 | 0.004 | COC(=O)N[C@H](C(=O)N1C[C@@H](C)C[C@H]1c1ncc(-c2ccc(-c3ccc(-c4cc5[nH]c([C@@H]6C[C@H](C)CN6C(=O)[C@@H](NC(=O)OC)C(C)C)nc5s4)s3)cc2)[nH]1)C(C)C | 13.3 | Cmax [11]: 10 ng/mL; Vd [12]: 3.8 L/kg; bioavailability [13]: 11%; IC50 [2]: 25.1 µM; IC50 [3]: > 30 µM; half-life [14]: 402 min; clearance [15]: 6.9 mL/min/kg; AUC(0-t) at 8 h [16]: 440 ng·h/mL; IC50 [4]: 21 µM; remaining at 0.5 h, 5 µM [6]: 100%; remaining at 0.5 h, 5 µM [7]: 100%; IC50 [8]: > 30 µM; half-life [17]: 588 min |
| 0.023 | 0.006 | COC(=O)N[C@H](C(=O)N1C[C@@H](C)C[C@H]1c1ncc(-c2ccc(-c3ccc(-c4cc5[nH]c([C@@H]6C[C@H](C)CN6C(=O)[C@@H](NC(=O)OC)C(C)C)nc5s4)cc3F)cc2)[nH]1)C(C)C | 20 |  |

Source: ChEMBL document CHEMBL3393045, “Discovery of thienoimidazole-based HCV NS5A inhibitors. Part 2: non-symmetric inhibitors with potent activity against genotype 1a and 1b” (Bioorg Med Chem Lett, 2015)
